Assay results reported in patent publication US9115201B2 (priority 2008, dated 2015).

Key:
Parameters in all cases: key: S, oseltamivir sensitive; R, oseltamivir resistant
[1] = molecular target: NA of A/Vietnam/1203/04 (Influenza A virus, UniProt Q6DPL2); type: biochemical, influenza H5N1 A/Vietnam/1203/04
[2] = system: NA of A/Vietnam/HN/30408/05; type: biochemical, influenza H5N1 A/Vietnam/HN/30408/05
[3] = system: NA of A/Udorn/72; type: biochemical, influenza H3N2 A/Udorn/72
[4] = system: NA of A/Hong Kong/156/97; type: biochemical, influenza H5N1 A/Hong Kong/156/97
[5] = system: NA of A/New Caledonia/20/99; type: biochemical, influenza H1N1 A/New Caledonia/20/99
[6] = system: NA of A/Egypt-2/14724/NAMRU3/06; type: biochemical, influenza H5N1 A/Egypt-2/14724/NAMRU3/06
[7] = system: NA of A/Indonesia/05; type: biochemical, influenza H5N1 A/Indonesia/05
[8] = system: NA of A/Egypt/14725/NAMRU3/06; type: biochemical, influenza H5N1 A/Egypt/14725/NAMRU3/06
[9] = system: NA of A/duck/Hong Kong/380.5/01; type: biochemical, influenza H5N1 A/duck/Hong Kong/380.5/01

NA of A/Vietnam/1203/04, sequence (Q6DPL2 whole entry, looked up): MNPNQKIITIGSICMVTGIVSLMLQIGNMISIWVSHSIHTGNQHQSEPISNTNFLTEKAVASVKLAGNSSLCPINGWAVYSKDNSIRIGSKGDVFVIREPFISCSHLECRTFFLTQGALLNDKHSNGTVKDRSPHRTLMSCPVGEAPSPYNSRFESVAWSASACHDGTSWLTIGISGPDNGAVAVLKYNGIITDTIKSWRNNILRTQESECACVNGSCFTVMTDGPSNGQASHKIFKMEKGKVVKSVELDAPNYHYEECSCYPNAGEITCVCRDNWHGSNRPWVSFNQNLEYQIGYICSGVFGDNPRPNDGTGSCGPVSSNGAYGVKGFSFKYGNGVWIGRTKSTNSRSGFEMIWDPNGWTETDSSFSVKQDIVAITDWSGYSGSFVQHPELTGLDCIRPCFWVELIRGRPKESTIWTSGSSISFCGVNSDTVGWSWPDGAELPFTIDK

For `CCOC(=O)C1=C[C@@H](OC(CC)CC)[C@H](NC(C)=O)[C@@H](N)C1` [Oseltamivir], the “Oseltamivir sensitivity of the virus” value [1] was “S”, the “Oseltamivir sensitivity of the virus” value [2] was “R” and the “Oseltamivir sensitivity of the virus” value [3] was “S^§”. For the same compound, the “Oseltamivir sensitivity of the virus” value [4] was “S”, the “Oseltamivir sensitivity of the virus” value [5] was “S” and the “Oseltamivir sensitivity of the virus” value [6] was “R”. The “Oseltamivir sensitivity of the virus” value [7] was “S”, the “Oseltamivir sensitivity of the virus” value [8] was “R” and the “Oseltamivir sensitivity of the virus” value [9] was “R”.
